According to US12677848B2, “Stevia flavor compositions” (PURECIRCLE USA INC., priority 2019, dated 2026):

Experiments:
Type in all cases: in vivo, human
[1] = tested on: consumer panel (company employees); test: Sweetness perception threshold in lemon poppy seed muffin (2-AFC); conditions: n = 30
Source text: Additional threshold test data found for Lemon Poppy Seed Muffin provided in Appendix. [table] [table]

[2] = tested on: consumer panel (company employees); test: Sweetness perception threshold in neutral water (2-AFC); conditions: n = 30
Source text: Therefore we selected 50 ppm of PCS-3028 as the recognition threshold concentration. [table] This is a re-evaluation of the recognition threshold concentration to follow methodology outlined in section 1.4.2 of the “Guidance for the Sensory Testing of Flavorings with Modifying Properties within the FEMA GRAS™ Program”.

[3] = tested on: consumer panel (company employees); test: Sweetness perception threshold in puffed corn breakfast cereal (2-AFC)
Protocol: […] As recommended by the FEMA Sensory guidance document,—Guidance for the Sensory Testing of Flavorings with Modifying Properties, within the FEMA GRAS™ Program, 2013—the recognition threshold concentration was determined using 2-alternateve forced choice (2-AFC) methodology.
This is an evaluation of the recognition threshold concentration to follow methodology outlined in section 1.4.2 of the “Guidance for the Sensory Testing of Flavorings with Modifying Properties within the FEMA GRAS™ Program”.
Sample Preparation: The puffed corn cereal (with no added sugar or flavor) purchased from local stores and sprayed with aqueous sucrose solutions using a portable atomizer to create a fine mist while tumbling the dry cereal grains. All the samples were dried to remove the added water from the samples. About 3 g of cereal was portioned into appropriately labeled blind-coded plastic 2 oz soufflé cup with lids. Samples were served dry to all panelists.

[4] = 4% sugar vs 70 ppm PCS3028 in muffins
[5] = 4% sugar vs 150 ppm PCS3028 in muffins
[6] = 4% sugar vs 250 ppm PCS3028 in muffins
[7] = 1.5% sucrose vs 30 ppm PCS-3028 in water
[8] = 1.5% sucrose vs 50 ppm PCS-3028 in water
[9] = 1.5% sucrose vs 70 ppm PCS-3028 in water
[10] = Puffed Corn Cereal + vs + 250 ppm PCS-3028, n = 30

## OC[C@H]1O[C@@](CO)(O[C@H]2O[C@H](CO)[C@@H](O)[C@H](O)[C@H]2O)[C@@H](O)[C@@H]1O [Sucrose]
[1]; [4]
  Frequency (sample named as sweeter): 76.7%
  PC (panelists naming the sample as sweeter): 23
[1]; [5]
  Frequency (sample named as sweeter): 70%
  PC (panelists naming the sample as sweeter): 21
[1]; [6]
  Frequency (sample named as sweeter): 33.3%
  PC (panelists naming the sample as sweeter): 10
[2]; [7]
  % Frequency (sample named as sweeter): 96.7%
  PC (panelists naming the sample as sweeter): 29
[2]; [8]
  PC (panelists naming the sample as sweeter): 21
  Percent Frequency (sample named as sweeter): 70.0%
[2]; [9]
  % Frequency (sample named as sweeter): 10%
  PC (panelists naming the sample as sweeter): 3
[3]; Puffed Corn Cereal + vs + 150 ppm PCS-3028, n = 30
  PC (panelists naming the sample as sweeter): 28
[3]; Puffed Corn Cereal + vs + 150 ppm PCS-3028, n = 30, listed as Sugar
  % Frequency (sample named as sweeter): 93.3%
[3]; [10]
  % Frequency (sample named as sweeter): 43.3%
  PC (panelists naming the sample as sweeter): 13
